Consider one compound from PMC12363518, “Azobenzene-Modified Temperature-Responsive Short Elastin-like Peptides for Photo-Controlled Phase Transition” (ACS Synthetic Biology, 2025).

Numbered stars: 1 amine (or outer) side, 2 acyl side, 3 side chain; on linkers, the order of the positions; unused ones are H or OH. Bridge positions count the residues as written; N and C are the ends. Peptide text beside a SMILES is read from it. I, II: the chains in the order shown. X1 = O=C(c1ccc(N=Nc2ccc(C(=O)[*:2])cc2)cc1)[*:1]

A short description of data set [1]: Turbidity measurement (OD600) of temperature-dependent phase separation, Tt. It is filed as physicochemical. The method, then:
The ability of the ELP–azobenzene conjugates to self-assemble was investigated by using turbidity measurements. In addition, we evaluated whether the photoisomerization of the azobenzene moieties induced differences in the aggregation ability of these analogues. Each peptide analogue was dissolved in PBS at different concentrations according to its water solubility. To quantitatively evaluate the aggregation ability, the transition temperature (T t) of the peptides was calculated from the change in optical density at a wavelength of 600 nm (OD600) associated with the increasing temperature (Table and Figure ).
The temperature-dependent self-assembly property of synthesized peptides was evaluated by using a JASCO V-660 spectral photometer (JASCO Co.). Each peptide was dissolved in PBS buffer or phosphate buffer solutions at various concentrations. Three types of phosphate buffers with the same ionic strength (μ = 0.100) but different pH (pH 7.4, 2.1, and 11.5) were prepared: phosphate buffer (pH 7.4, 29.4 mM Na2HPO4, 11.7 mM NaH2PO4), phosphate buffer (pH 2.1, 10.0 mM NaH2PO4, 10.5 mM phosphoric acid), and phosphate buffer (pH 11.5, 9.58 mM Na3PO4, 14.2 mM Na2HPO4). Turbidity was measured at 600 nm with increasing or decreasing temperature at a rate of 0.5 °C/min from 5 °C. The measurements were performed for the dark-adapted solution and after successive irradiation with UV light, visible light, and UV light. Each assay was repeated three times with different peptide solutions that were prepared separately. The phase separation property was described by the phase transition temperature (T t), which is the temperature at which the turbidity of the solution reaches half its maximum value.

On to `CC(C)[C@H](NC(=O)CNC(=O)[C@@H]1CCCN1C(=O)[C@H](Cc1ccccc1)NC(=O)CNC(=O)[C@@H](NC(=O)CNC(=O)[C@@H]1CCCN1C(=O)[C@H](Cc1ccccc1)NC(=O)[C@H](CCCCN)NC(=O)c1ccc(N=Nc2ccc(C(=O)N[C@@H](CCCCN)C(=O)N[C@@H](Cc3ccccc3)C(=O)N3CCC[C@H]3C(=O)NCC(=O)N[C@H](C(=O)NCC(=O)N[C@@H](Cc3ccccc3)C(=O)N3CCC[C@H]3C(=O)NCC(=O)N[C@H](C(=O)NCC(=O)O)C(C)C)C(C)C)cc2)cc1)C(C)C)C(=O)NCC(=O)O` [Azb-2(K-F2)] (I: KFPGVGFPGVG-OH / II: KFPGVGFPGVG-OH; linker I:N-II:N via X1), for which the peak wavelength n–π* was 430 nm. In data set [1] (after "UV" conditions 1 h, PBS pH 7.4, OD600, 0.5 °C/min, Tt at half-maximal turbidity, concentrations as in Table 2, n = 3), the “Tt,UV (phase transition temperature)” value amounted to 35.08 ± 0.30 °C. Moreover, the “Tt,UV–vis (phase transition temperature)” value in data set [1] (after "UV–vis" conditions 1 h, PBS pH 7.4, OD600, 0.5 °C/min, Tt at half-maximal turbidity, concentrations as in Table 2, n = 3) is 32.55 ± 0.67 °C. In data set [1] (after "UV–vis–UV" conditions 1 h, PBS pH 7.4, OD600, 0.5 °C/min, Tt at half-maximal turbidity, concentrations as in Table 2, n = 3), the “Tt,UV–vis–UV (phase transition temperature)” value stood at 35.94 ± 1.15 °C. Further, the “Tt, UV in phosphate buffer (PB)” value in data set [1] (after UV irradiation, PB pH 7.4 (ionic strength 0.100), 3.00 mg/mL (1.27 mM), OD600) came to 31.42 ± 0.78 °C. Also, the “Tt, dark in phosphate buffer (PB)” value in data set [1] (dark-adapted, PB pH 7.4 (ionic strength 0.100), Azb-2(K-F2) 3.00 mg/mL (1.27 mM), 2(D-F2)-Azb 1.50 mg/mL (0.66 mM), OD600) is 27.57 ± 0.18 °C. For the same compound, in data set [1] (dark-adapted, PBS pH 7.4, OD600, 0.5 °C/min from 5 °C, Tt at half-maximal turbidity, F2-Azb-F2 100 μM, F2-Azb-F2-NH2 50 μM, Azb-2(K-F2) 1.27 mM, 2(F2-D)-Azb 0.66 mM, n = 3 separately prepared solutions), the “Tt,dark (phase transition temperature)” value came to 32.09 ± 0.14 °C. The “phase separation in acidic phosphate buffer” value in data set [1] (phosphate buffer pH 2.1, Azb-2(K-F2) 1.27 mM, 2(F2-D)-Azb 0.66 mM, turbidity OD600) is recorded as “did not show phase separation”. Besides, the “phase separation in neutral phosphate buffer” value in data set [1] (phosphate buffer pH 7.4, Azb-2(K-F2) 1.27 mM, 2(F2-D)-Azb 0.66 mM, turbidity OD600) is “underwent thermoresponsive phase separation”. Further, the “phase separation in basic phosphate buffer” value in data set [1] (phosphate buffer pH 11.5, Azb-2(K-F2) 1.27 mM, 2(F2-D)-Azb 0.66 mM, turbidity OD600) is reported as “did not show phase separation”.
